Here are results for 21 molecules from ChEMBL document CHEMBL1126210, “Conformationally restricted peptide isosteres. 2.1 Synthesis and in vitro potency of dipeptide renin inhibitors employing a 2-alkylsulfonyl-3-phenylcyclopropane carboxamide as a P3 amino acid replacement” (Bioorg Med Chem Lett, 1992).

The structures appear in SMILES notation.

Experiment [1] has as its target T1, Renin (Homo sapiens, UniProt P00797).
T1 sequence (P00797 whole entry): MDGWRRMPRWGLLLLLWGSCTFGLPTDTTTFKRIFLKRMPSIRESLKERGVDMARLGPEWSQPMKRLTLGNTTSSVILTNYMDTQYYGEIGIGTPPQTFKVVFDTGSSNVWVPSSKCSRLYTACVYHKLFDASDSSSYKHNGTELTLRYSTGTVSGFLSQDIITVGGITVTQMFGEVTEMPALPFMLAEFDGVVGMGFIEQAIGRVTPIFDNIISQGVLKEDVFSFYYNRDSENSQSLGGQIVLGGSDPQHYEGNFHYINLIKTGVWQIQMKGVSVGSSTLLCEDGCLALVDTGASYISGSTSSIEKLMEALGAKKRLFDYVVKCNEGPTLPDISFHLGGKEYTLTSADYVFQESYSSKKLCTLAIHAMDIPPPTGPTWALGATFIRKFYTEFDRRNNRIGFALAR
Nature of the experiment: In vitro inhibition of purified human renin at PH 6.0.

The target of experiment [2] is T1, Renin. The experiment can be described thus: In vitro inhibition of human plasma renin at PH 7.4.

As for `CC(C)C[C@H](O)[C@H](O)[C@H](CC1CCCCC1)NC(=O)[C@H](Cc1cscn1)NC(=O)[C@H]1[C@H](CC(=O)N2CCOCC2)[C@@H]1c1ccccc1`, the IC50 (usually the concentration that inhibits the measured activity by half) amounted to 0.7 nM against Renin [1] and 20 nM on Renin [2].

Take `CC(C)C[C@H](O)[C@H](O)[C@H](CC1CCCCC1)NC(=O)[C@H](Cc1cscn1)NC(=O)[C@H](Cc1ccccc1)CS(=O)(=O)C(C)(C)C`: on Renin [2], inhibition was half-maximal at 0.87 nM (IC50). For `CC(C)C[C@H](O)[C@H](O)[C@H](CC1CCCCC1)NC(=O)[C@H](Cc1cscn1)NC(=O)[C@@H]1[C@@H](C2CCCCC2)[C@H]1S(=O)(=O)C(C)C`, the values for the IC50 on Renin [1] and at Renin [2] were 0.79 nM and 15 nM, respectively. For the molecule `CC(C)C[C@H](O)[C@H](O)[C@H](CC1CCCCC1)NC(=O)[C@H](Cc1cscn1)NC(=O)[C@H]1[C@H](c2ccccc2)[C@@H]1S(=O)(=O)C(C)C`, the IC50 was 7 nM against Renin [1] and 85 nM against Renin [2]. Take `C=CS(=O)(=O)[C@@H]1[C@@H](C(=O)N[C@@H](Cc2cscn2)C(=O)N[C@@H](CC2CCCCC2)[C@@H](O)[C@@H](O)CC(C)C)[C@@H]1c1ccccc1`: the IC50 against Renin [1] is 7.2 nM; against Renin [2], 27 nM. At Renin [2], `CC(C)C[C@H](O)[C@H](O)[C@H](CC1CCCCC1)NC(=O)[C@H](Cc1cscn1)NC(=O)[C@H](Cc1ccccc1)CS(=O)(=O)N1CCOCC1` came in with a concentration for half-maximal inhibition (IC50) of 1.4 nM.

Turning to `CC(C)C[C@H](O)[C@H](O)[C@H](CC1CCCCC1)NC(=O)[C@H](Cc1cscn1)NC(=O)[C@@H]1[C@@H](c2ccccc2)[C@H]1S(=O)(=O)c1ccccc1`, the IC50 on Renin [1] came out at 1.2 nM; against Renin [2], 29 nM. `CC(C)C[C@H](O)[C@H](O)[C@H](CC1CCCCC1)NC(=O)[C@H](Cc1cscn1)NC(=O)[C@H]1[C@H](C2CCCCC2)[C@@H]1S(=O)(=O)C(C)C` registered an IC50 against Renin [1] of 14 nM.

In the case of `CC(C)C[C@H](NC(=O)[C@H]1[C@H](c2ccccc2)[C@@H]1S(=O)(=O)C(C)C)C(=O)N[C@@H](CC1CCCCC1)[C@@H](O)[C@@H](O)CC(C)C`, the results for the 50% inhibitory concentration (IC50) against Renin [1] and against Renin [2] were 4.4 nM and 370 nM, respectively. As to `CCCC[C@H](NC(=O)[C@@H]1[C@@H](c2ccccc2)[C@H]1S(=O)(=O)C(C)C)C(=O)N[C@@H](CC1CCCCC1)[C@@H](O)[C@@H](O)CC(C)C`, the IC50 amounted to 0.37 nM on Renin [1] and 13 nM on Renin [2]. As for `CC(C)C[C@H](O)[C@H](O)[C@H](CC1CCCCC1)NC(=O)[C@H](Cc1cscn1)NC(=O)[C@@H]1[C@@H](c2ccccc2)[C@H]1S(C)(=O)=O`, the half-maximal inhibitory concentration (IC50) against Renin [1] amounted to 0.63 nM; against Renin [2], 23 nM. Consider `CC(C)C[C@H](O)[C@H](O)[C@H](CC1CCCCC1)NC(=O)[C@H](Cn1ccnc1)NC(=O)[C@H]1[C@H](c2ccccc2)[C@@H]1S(=O)(=O)C(C)C`, for which the half-maximal inhibitory concentration (IC50) against Renin [1] was 2.5 nM; against Renin [2] it was 15 nM. For `CC(C)C[C@H](O)[C@H](O)[C@H](CC1CCCCC1)NC(=O)[C@H](Cc1cscn1)NC(=O)[C@@H]1[C@@H](c2ccccc2)[C@H]1S(=O)(=O)C(C)C`, the results for the IC50 against Renin [1] and at Renin [2] were 0.38 nM and 7.9 nM, respectively. `COCOCCS(=O)(=O)[C@H]1[C@H](C(=O)N[C@@H](Cc2cscn2)C(=O)N[C@@H](CC2CCCCC2)[C@@H](O)[C@@H](O)CC(C)C)[C@H]1c1ccccc1`: the IC50 at Renin [1] worked out at 0.48 nM; against Renin [2] it was 16 nM. Consider `COCOCCS(=O)(=O)[C@@H]1[C@@H](C(=O)N[C@@H](Cc2cscn2)C(=O)N[C@@H](CC2CCCCC2)[C@@H](O)[C@@H](O)CC(C)C)[C@@H]1c1ccccc1`, for which the 50% inhibitory concentration (IC50) came out at 1 nM against Renin [1] and 33 nM against Renin [2]. With `C=CS(=O)(=O)[C@H]1[C@H](C(=O)N[C@@H](Cc2cscn2)C(=O)N[C@@H](CC2CCCCC2)[C@@H](O)[C@@H](O)CC(C)C)[C@H]1c1ccccc1`, the results for the 50% inhibitory concentration (IC50) against Renin [1] and at Renin [2] were 0.63 nM and 17 nM, respectively.

As to `CO[C@@H](CC(C)C)[C@H](O)[C@H](CC1CCCCC1)NC(=O)[C@H](Cc1cscn1)NC(=O)C(Cc1ccccc1)CS(=O)(=O)c1ccccc1` (stereo partly drawn), the IC50 stood at 0.77 nM against Renin [1] and 18 nM on Renin [2].

As for `CC(C)C[C@H](O)[C@H](O)[C@H](CC1CCCCC1)NC(=O)[C@H](Cn1ccnc1)NC(=O)[C@@H]1[C@@H](c2ccccc2)[C@H]1S(=O)(=O)C(C)C`, the IC50 was found to be 1.4 nM at Renin [1] and 5.8 nM against Renin [2]. Consider `CC(C)C[C@H](NC(=O)[C@@H]1[C@@H](c2ccccc2)[C@H]1S(=O)(=O)C(C)C)C(=O)N[C@@H](CC1CCCCC1)[C@@H](O)[C@@H](O)CC(C)C`, for which the IC50 against Renin [1] amounted to 0.59 nM; at Renin [2], 14 nM. For the molecule `CC(C)C[C@H](O)[C@H](O)[C@H](CC1CCCCC1)NC(=O)[C@H](Cc1cscn1)NC(=O)[C@H]1[C@H](c2ccccc2)[C@@H]1S(C)(=O)=O`, it took 23 nM to reach half-maximal inhibition against Renin [1] (IC50). Consider `CCCC[C@H](NC(=O)[C@H]1[C@H](c2ccccc2)[C@@H]1S(=O)(=O)C(C)C)C(=O)N[C@@H](CC1CCCCC1)[C@@H](O)[C@@H](O)CC(C)C`, for which the concentration for half-maximal inhibition (IC50) on Renin [1] amounted to 1.9 nM; on Renin [2] it was 160 nM.
